Data: ChEMBL document CHEMBL4622875, “(3,3″)-Linked Biflavanones from Ouratea spectabilis and Their Effects on the Release of Proinflammatory Cytokines in THP-1 Cells” (J Nat Prod, 2020)
Active and inactive are the calls of the source. The calls are words filed in the database; no cut-off is given here.

Assays:
[1] = Cytotoxicity against human THP1 cells assessed as cell viability at 10 to 90 uM incubated for 18 hrs by sulforhodamine B assay relative to control; type: cell-based; conditions: THP-1 cells, read-out: Activity
[2] = test system: THP-1; assay: Antiinflammatory activity in human THP1 cells assessed as reduction in LPS-induced TNF secretion at 10 to 90 uM preincubated for 3 hrs followed by LPS stimulation and measured after 18 hrs by ELISA; type: functional, cell-based
[3] = test system: THP-1; assay: Antiinflammatory activity in human THP1 cells assessed as reduction in LPS-induced IL-1beta secretion at 10 to 90 uM preincubated for 3 hrs followed by LPS stimulation and measured after 18 hrs by ELISA; type: functional, cell-based
[4] = test system: THP-1; assay: Antiinflammatory activity in human THP1 cells assessed as reduction in LPS-induced CCL2 secretion preincubated for 3 hrs followed by LPS stimulation and measured after 18 hrs by ELISA; type: functional, cell-based

Q: Which viability at 18 h, up to 90 µM [1] does the source give for `COc1cc(O)c2c(c1)O[C@H](c1ccc(O)cc1)[C@@H]([C@H]1C(=O)c3c(O)cc(O)cc3O[C@@H]1c1ccc(O)cc1)C2=O` here?
A: > 90%

Q: And the Activity [2]?
A: inactive

Q: What about the Activity [3] of the same molecule?
A: inactive

Q: What does the source list for `O=C1c2c(O)cc(O)cc2O[C@H](c2ccc(O)cc2)[C@@H]1[C@@H]1C(=O)c2c(O)cc(O)cc2O[C@@H]1c1ccc(O)cc1` [NEOCHAMAEJASMIN A]?
A: viability at 18 h, up to 90 µM [1]: > 90%; Activity [2]: inactive; Activity [3]: inactive

Q: For `COc1cc(O)c2c(c1)O[C@H](c1ccc(O)cc1)[C@@H]([C@H]1C(=O)c3c(O)cc(OC)cc3O[C@@H]1c1ccc(O)cc1)C2=O`, which viability at 18 h, up to 90 µM [1] is on record?
A: > 90%

Q: And the Activity [2]?
A: inactive

Q: What about the Activity [3] of the same molecule?
A: inactive

Q: And the IC50 [4]?
A: 3.1 µM

Q: With `COc1cc(O)c2c(c1)O[C@H](c1ccc(O)cc1)[C@H]([C@@H]1C(=O)c3c(O)cc(OC)cc3O[C@@H]1c1ccc(O)cc1)C2=O` as the molecule, how does the viability at 18 h, up to 90 µM [1] read?
A: > 90%

Q: What about the Activity [2] of the same molecule?
A: inactive

Q: What about the Activity [3] of the same molecule?
A: inactive
